Experimental data taken from PubChem BioAssay (NCI).
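Protocol summary: plate cells (96-well), add compound at 5 concentrations, incubate 48 h, interpolate endpoints linearly. GI50 = concentration required for 50% inhibition of growth. TGI: concentration producing complete growth inhibition.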

Assays:
Test in all cases: NCI-60 cell line screen, 48 h
MDA-MB-435 = tested on: MDA-MB-435
DU-145 prostate = tested on: DU-145 prostate
IGROV1 ovarian = tested on: IGROV1 ovarian
NCI-H522 lung = tested on: NCI-H522 lung
SR leukemia = tested on: SR leukemia
SK-MEL-28 melanoma = tested on: SK-MEL-28 melanoma
A498 renal = tested on: A498 renal
LOX IMVI melanoma = tested on: LOX IMVI melanoma
HL-60(TB) leukemia = tested on: HL-60(TB) leukemia
SNB-19 CNS = tested on: SNB-19 CNS

Structure (SMILES)	GI50 (MDA-MB-435) [µM]	TGI (MDA-MB-435) [µM]	GI50 (DU-145 prostate) [µM]	TGI (DU-145 prostate) [µM]	GI50 (IGROV1 ovarian) [µM]	TGI (IGROV1 ovarian) [µM]	GI50 (NCI-H522 lung) [µM]	TGI (NCI-H522 lung) [µM]	GI50 (SR leukemia) [µM]	TGI (SR leukemia) [µM]	GI50 (SK-MEL-28 melanoma) [µM]	TGI (SK-MEL-28 melanoma) [µM]	GI50 (A498 renal) [µM]	TGI (A498 renal) [µM]	GI50 (LOX IMVI melanoma) [µM]	TGI (LOX IMVI melanoma) [µM]	GI50 (HL-60(TB) leukemia) [µM]	TGI (HL-60(TB) leukemia) [µM]	GI50 (SNB-19 CNS) [µM]	TGI (SNB-19 CNS) [µM]
O=C(CCCCCCNC(=O)c1cnc(N(c2ccccc2)c2ccccc2)nc1)NO	2.04	> 36.8	3.82	> 100	3.2	16.6	0.786	5.66	1.22	> 100	3.41	33.3	2.5	14.8	2.15	11.4	3.53	> 62.3	3.67	31.3
CCN1C(=O)N(CC)C2C1NN=c1s/c(=C\c3cccc(F)c3)c(=O)n12 (centres undefined)	0.0271	0.0833	0.389	> 100	0.233	> 100	0.228	33.2	0.044	> 100	13.1	> 100	< 0.0184	0.184	0.11	> 100	0.0582	0.46	0.263	> 100
COc1ccc(/C=C/C(=O)c2cc(OC)c(OC)c(OC)c2)cc1OCc1cn(Cc2ccc(F)cc2)nn1	2.78	> 100	2.59	6.64	7.4	> 100	1.74	5.22	0.843	> 100	5.62	35.5	12.2	56.2	2.75	18.7	3.31	9.07	4.42	> 100
COc1cc(/C=C\c2cc(OC)c(OC)c(OC)c2)cc(NC(=O)/C=C/c2cc(OC)c(OC)c(OC)c2)c1OC	1.54	4.84	> 100	> 100	6.61	> 100	2.73	> 100	0.23	> 100	3.51	> 100	5.21	> 100	4.51	> 100	0.509	4.46	48.6	> 100
CCCCON(OC(=O)c1ccc2ccccc2c1)C(=O)c1ccccc1	> 100	> 100	> 100	> 100	44.1	> 100	63	> 100	31.5	77.1	> 100	> 100	> 100	> 100	25.3	72	91	> 100	> 100	> 100
C[C@H](NC(=O)[C@@H](C)N)[C@H](Oc1ccc2c(cnn2-c2ccc(F)cc2)c1)c1ccc2c(c1)OCCO2	1.61	3.24	2.02	5.01	1.84	5.07	1.9	3.78	2.03	5.24	1.75	3.4	11.5	24.4	1.78	3.41	2.28	4.94	3.29	12.4
CCOC(=O)Nc1ccc2c(c1)/C(=N\NC(N)=S)c1ccccc1-2	3.58	18.3	5.15	20	5.88	28.1	3.84	12.7	3.13	24.3	4.58	17.7	2.39	8.18	3.52	20.2	4.24	16.1	9.92	> 100
O=c1[nH]nnc2c1ncn2C1OC(CO)C(O)C1O (centres undefined)	14.2	> 100	1.38	> 100	2.96	> 100	6.49	> 100	3.21	59.7	68.3	> 100	61.3	> 100	2.23	> 100	1.39	83.3	> 100	> 100
N#CC1(C#N)C2(c3ccccc3)OC(c3ccccc3)(c3cc4ccccc4cc32)C1(C#N)C#N	–	31.7	–	28.5	–	31.2	–	8.43	–	53.8	–	26.1	–	35.1	–	11.1	–	7.05	–	32.2
CNC(=O)Nc1nc2ccc([N+](=O)[O-])cc2[nH]1	–	> 100	–	> 100	–	> 100	–	> 100	–	> 100	–	> 100	–	> 100	–	> 100	–	> 100	–	> 100
O=C1C(Cl)=C(Nc2cccc(Cl)c2)C(=O)N1Cc1ccc(Cl)cc1	0.396	2.91	2.72	11.4	1.19	> 39.3	0.916	8.21	0.215	–	3.12	23.5	1.55	11.9	0.408	8.49	1.65	15.7	4.06	33
COC(=O)C1CC23CCCN4CCC5(c6ccccc6N(C=O)C15CC2)C43 (centres undefined)	–	> 100	–	> 100	–	> 100	–	> 100	–	> 100	–	> 100	–	> 100	–	> 100	–	> 100	–	> 100
